Consider nine compounds from US20080318989A1, “Pyrimidine Kinase Inhibitors” (priority 2005, published 2008).

For one assay, the system named is HT29 colon cancer cell line. Nature of the assay: Cellular proliferation/viability assay (Cell-Titer-Glo), HT29. Type of assay: cell-based. To be noted: Homo sapiens, HT-29, 120 h; HT29, 5 days incubation. The method, then:
(§1) Potency of test compounds in inhibiting cellular proliferation and/or cellular viability was estimated using a cellular ATP assay (Cell-Titer-Glo, Promega). Cells (HCT116, HT29 colon cancer cell lines, MCF-7 breast cancer cell line) were seeded in 384-well plates (Greiner μClear) at an appropriate density in 50:50 DMEM/Hams F-12 medium supplemented with 10% fetal calf serum, and allowed to attach overnight. Test compounds were sequentially diluted in DMSO and then culture medium, and added to the cells at appropriate concentrations. Cells were incubated with compound for 5 days. Cell number/viability was estimated using Cell-Titer-Glo reagent (Promega) according to manufacturers instructions.
As usually defined, the IC50 is the concentration that gives 50% inhibition. Low readings indicate inhibition by little substance, high ones a need for much substance. As for `CCN1C(=O)C(C)(C)c2cc(Nc3ncc(Cl)c(Nc4ccccc4NC(=O)/C=C/c4ccccc4)n3)ccc21` [compound 49], the IC50 turned out to be 100 nM. This lies in the sub-micromolar range.

The next assay addresses T1, Aurora A (Homo sapiens, UniProt O14965).
T1 sequence (O14965 1-403): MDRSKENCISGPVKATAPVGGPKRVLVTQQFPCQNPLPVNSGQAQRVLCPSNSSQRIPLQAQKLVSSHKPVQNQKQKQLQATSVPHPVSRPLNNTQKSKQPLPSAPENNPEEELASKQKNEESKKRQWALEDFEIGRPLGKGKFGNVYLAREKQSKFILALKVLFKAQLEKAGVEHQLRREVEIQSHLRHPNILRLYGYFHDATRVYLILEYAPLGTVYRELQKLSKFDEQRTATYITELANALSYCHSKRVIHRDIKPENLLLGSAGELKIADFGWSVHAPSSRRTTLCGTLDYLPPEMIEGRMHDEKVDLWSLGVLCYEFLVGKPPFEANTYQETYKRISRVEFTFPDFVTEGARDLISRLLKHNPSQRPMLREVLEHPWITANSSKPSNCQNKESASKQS
Nature of the assay: Aurora A in vitro kinase assay (ELISA). It counts as biochemical. As to conditions: 30 μM ATP, 45 minutes. On the procedure:
Kinase activities were measured by Enzyme-Linked Immunosorbent Assay (ELISA): Maxisorp 384-well plates (Nunc) were coated with recombinant fusion protein comprising residues 1-15 of Histone H3 fused to the N-terminus of Glutathione-S-Transferase. Plates were then blocked with a solution of 1 mg/mL I-block (Tropix Inc) in phosphate-buffered saline. Kinase reactions were carried out in the wells of the ELISA plate by combining an appropriate amount of Aur A and B kinases and/or mutants thereof with test compound and 30 μM ATP. The reaction buffer was 1× Kinase Buffer (Cell Signaling Technologies) supplemented with 1 μg/mL I-block. Reactions were stopped after 45 minutes by addition of 25 mM EDTA. After washing, substrate phosphorylation was detected by addition of anti-phospho-Histone H3 (Ser 10) 6G3 mAb (Cell Signaling cat #9706) and sheep anti-mouse pAb-HRP (Amersham cat# NA931V), followed by calorimetric development with TMB.
For orientation: An ELISA detects its analyte on a solid surface through an enzyme-linked reagent.
In turn, `CCN1C(=O)C(C)(C)c2cc(Nc3ncc(F)c(Nc4ccc(C(=O)NC(C)(C)C)cc4)n3)ccc21` [compound 5] returned an IC50 of 10.8 nM. On the same count and under the same terms, as for `CCN1C(=O)C(C)(C)c2cc(Nc3ncc(F)c(Nc4ccc(C(=O)Nc5ccccn5)cc4)n3)ccc21` [compound 26], the figure is 23.1 nM; as for `COCCN1C(=O)C(C)(C)c2cc(Nc3ncc(F)c(Nc4ccccc4NC(=O)C4CC4)n3)ccc21` [compound 38], 7.2 nM. The same measure, in the same setting: as for `CC(=O)N1CCc2cc(Nc3ncc(Cl)c(Nc4ccccc4C(=O)NC4CC4)n3)ccc21` [compound 44], the figure is 2.1 nM. In the case of `CC(=O)N1CC(C)(C)c2cc(Nc3ncc(Cl)c(Nc4ccccc4C(=O)NC4CC4)n3)ccc21` [compound 48], the IC50 is 24.8 nM. Against the preceding compound, the IC50 is about 12-fold higher.

`O=C(/C=C/c1ccccc1)Nc1ccccc1Nc1nc(Nc2ccc3c(c2)CC(=O)N3)ncc1Cl` [compound 50]: the IC50 stood at 6 nM. Compound `O=C(Nc1ccccc1Nc1nc(Nc2ccc3c(c2)CS(=O)(=O)C3)ncc1Cl)C1CC1` [compound 58] gave an IC50 of 0.6 nM. On the same count and under the same terms, as for `CN1C(=O)C(C)(C)c2cc(Nc3ncc(F)c(Oc4ccc(C(=O)Nc5ccccn5)cc4)n3)ccc21` [compound 59], the figure is 10.4 nM.

In a further assay the test system is HCT116 colon cancer cell line. Nature of the assay: Cellular proliferation/viability assay (Cell-Titer-Glo), HCT116. It counts as cell-based. To be noted: Homo sapiens, HCT-116, 120 h; HCT116, 5 days incubation. The method, then:
as §1
For the compound `CCN1C(=O)C(C)(C)c2cc(Nc3ncc(Cl)c(Nc4ccccc4NC(=O)/C=C/c4ccccc4)n3)ccc21` [compound 49], the IC50 was 110 nM.
